The values below come from ChEMBL document CHEMBL6074691, “Discovery of 22(S)-23-phenyl-24-norchol-5-en-3β,22-diol (PFM046) as the first-in-class, steroidal, non-sulfated Liver X Receptor antagonist with anticancer activity” (Eur J Med Chem, 2025).

Active and inactive are the calls of the source. The calls are words filed in the database; no cut-off is given here.

One may read the IC50 as the point on the concentration scale where inhibition reaches its midpoint. By Cmax is commonly meant the highest concentration seen after dosing. As usually defined, the Tmax is the time at which the peak concentration occurs. As usually defined, the AUC(0-t) is exposure summed from dosing to a finite time, without extrapolation to infinity. Higher therefore signals more exposure. The AUC(0-inf) is the area under the concentration-time curve extrapolated to infinity.

The target in data set [1] is T1, Oxysterols receptor LXR-alpha (Homo sapiens, UniProt Q13133).
T1 sequence (Q13133 whole entry): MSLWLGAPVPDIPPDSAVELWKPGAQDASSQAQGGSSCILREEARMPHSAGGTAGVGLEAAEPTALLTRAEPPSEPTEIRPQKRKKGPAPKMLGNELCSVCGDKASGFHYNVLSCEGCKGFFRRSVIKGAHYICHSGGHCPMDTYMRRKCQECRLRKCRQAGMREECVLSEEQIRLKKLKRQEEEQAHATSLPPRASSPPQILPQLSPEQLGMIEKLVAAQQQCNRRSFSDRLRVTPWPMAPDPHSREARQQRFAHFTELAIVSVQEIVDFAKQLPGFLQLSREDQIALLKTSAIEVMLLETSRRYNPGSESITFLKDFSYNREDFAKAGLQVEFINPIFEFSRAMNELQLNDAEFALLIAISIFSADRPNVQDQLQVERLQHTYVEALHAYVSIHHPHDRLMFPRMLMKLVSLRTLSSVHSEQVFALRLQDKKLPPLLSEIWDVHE
Description: Antagonist activity at LXRalpha (unknown origin) by TR-FRET assay. In general terms: Time-resolved FRET reads energy transfer from a long-lived donor to a nearby acceptor.

Data set [2] deals with T1, Oxysterols receptor LXR-alpha. As to the kind of experiment: Antagonist activity at LXRalpha (unknown origin).
In data set [3] the test system is Lewis lung carcinoma cell line. As to the kind of experiment: Antitumor activity against mouse Lewis lung carcinoma cell line assessed as reduction in cell number at 10 uM incubated for 72 hrs by trypan blue assay. It counts as functional, cell-based.
Another data set concerns B16-F1. As to the kind of experiment: Antitumor activity against mouse B16-F1 cells implanted in C57BL/6 mouse assessed as reduction in tumor volume at 300 to 400 ug, ip administered 5 days per week and measured every 2 to 3 days by caliper method. The format is functional, organism-based. To be noted: dose 300-400 µg.
Data set [4] deals with Lewis lung carcinoma cell line. Description: Antitumor activity against mouse Lewis lung carcinoma cell line implanted in C57BL/6 mouse assessed as reduction in tumor volume at 300 to 400 ug, ip administered 5 days per week and measured every 2 to 3 days by caliper method. It counts as functional, organism-based. To be noted: dose 300-400 µg.
The nature of data set [5]: Kinetic solubility of compound in PBS at pH 7.4 by Rapidfire-MS/MS method. To be noted: buffer. It counts as physicochemical.
A short description of data set [6]: Unbound fraction in human plasma by dialysis method. The format is ADME, cell-free.
A short description of data set [7]: Unbound fraction in mouse plasma by dialysis method. It counts as ADME, cell-free.
Data set [8] in a line: Hepatic intrinsic clearance in human liver microsomes assessed per mg protein at 0.5 uM in presence of NADPH regenerating system by UHPLC-MS/MS method. The format is ADME, Microsome. The following applies: read-out: CLH. On the technique in general: Microsomes from liver hold many membrane-bound enzymes, among them those of drug oxidation.
Data set [9] in a line: Hepatic intrinsic clearance in mouse liver microsomes assessed per mg protein at 0.5 uM in presence of NADPH regenerating system by UHPLC-MS/MS method. It counts as ADME, Microsome. The following applies: read-out: CLH.
The nature of data set [10]: Drug uptake in C57BL/6 mouse at 400 ug, ip measured after 1 hr by UHPLC-MS/MS analysis. The following applies: in vivo, dose 400 µg, read-out: Drug uptake. It counts as ADME, organism-based.
Data set [11] can be described thus: Drug uptake in C57BL/6 mouse at 400 ug, ip measured after 3 hrs by UHPLC-MS/MS analysis. The format is ADME, organism-based. To be noted: in vivo, dose 400 µg, read-out: Drug uptake.
Data set [12] in a line: Drug uptake in C57BL/6 mouse at 400 ug, ip measured after 6 hrs by UHPLC-MS/MS analysis. The following applies: in vivo, dose 400 µg, read-out: Drug uptake. It counts as ADME, organism-based.
Data set [13] in a line: Drug uptake in C57BL/6 mouse at 400 ug, ip measured after 24 hrs by UHPLC-MS/MS analysis. The following applies: in vivo, dose 400 µg, read-out: Drug uptake. It counts as ADME, organism-based.
The nature of data set [14]: Cmax in C57BL/6 mouse at 400 ug, ip by UHPLC-MS/MS analysis. The format is ADME, organism-based. The following applies: in vivo, dose 400 µg.
Data set [15] is described as follows: Tmax in C57BL/6 mouse at 400 ug, ip by UHPLC-MS/MS analysis. The format is ADME, organism-based. To be noted: in vivo, dose 400 µg.
A short description of data set [16]: Clast in C57BL/6 mouse at 400 ug, ip by UHPLC-MS/MS analysis. It counts as ADME, organism-based. The following applies: in vivo, dose 400 µg.
Data set [17] in a line: Tlast in C57BL/6 mouse at 400 ug, ip by UHPLC-MS/MS analysis. The format is ADME, organism-based. To be noted: in vivo, dose 400 µg.
The nature of data set [18]: AUClast in C57BL/6 mouse at 400 ug, ip by UHPLC-MS/MS analysis. The format is ADME, organism-based. To be noted: in vivo, dose 400 µg.
Data set [19] has as its system U-937. Description: Downregulation of SREBP-1 expression in human U-937 cells incubated for 72 hrs by qRT-PCR analysis. The format is functional, cell-based. On the technique in general: Quantitative PCR measures a nucleic acid by following its amplification.
The test system of data set [20] is U-937. As to the kind of experiment: Downregulation of SCD1 expression in human U-937 cells incubated for 72 hrs by qRT-PCR analysis. The format is functional, cell-based.
Data set [21] has as its system U-937. Description: Downregulation of FASN expression in human U-937 cells incubated for 72 hrs by qRT-PCR analysis. The format is functional, cell-based.
Data set [22] concerns U-937. As to the kind of experiment: Upregulation of ABCA1 expression in human U-937 cells incubated for 72 hrs by qRT-PCR analysis. The format is functional, cell-based.
The nature of data set [23]: Observed AUC infinity in C57BL/6 mouse at 400 ug, ip by UHPLC-MS/MS analysis. To be noted: in vivo, dose 400 µg. It counts as ADME, organism-based.
The subject of a further data set is Mus musculus. Description: Observed extrapolated AUC in C57BL/6 mouse at 400 ug, ip by UHPLC-MS/MS analysis. It counts as ADME, organism-based. The following applies: in vivo, at 400 µg.

`CC(C)[C@@H](O)CC[C@@H](C)[C@H]1CC[C@H]2[C@@H]3CC=C4C[C@@H](OS(=O)(=O)O)CC[C@]4(C)[C@H]3CC[C@]12C` displayed an IC50 in data set [1] of 150 nM.

As to `CC(C)CCC[C@@H](C)[C@H]1CC[C@H]2[C@@H]3C(=O)C=C4C[C@@H](OS(=O)(=O)O)CC[C@]4(C)[C@H]3CC[C@]12C`, in [2], inhibition was half-maximal at 5000 nM (IC50).

For `CC(C)[C@H](CC[C@@H](C)[C@H]1CC[C@H]2[C@@H]3CC=C4C[C@@H](O)CC[C@]4(C)[C@H]3CC[C@]12C)OS(=O)(=O)O`, the IC50 in [1] came to 310 nM.

On to `C[C@@H]([C@H]1CC[C@H]2[C@@H]3CC=C4C[C@@H](O)CC[C@]4(C)[C@H]3CC[C@]12C)[C@@H](O)Cc1ccccc1`, for which the outcome (in data set [3]; in the data set on B16-F1; in data set [4]; in the data set with U-937 [19]; with U-937 [20]; in the data set with U-937 [21]) was Active. The outcome in the data set on U-937 [22] was Active. Moreover, the Kinetic_solubility result in [5] is given as “NotTraceable”. Besides, the Fu in data set [6] and in data set [7] was less than 1% throughout. The microsomal CLint at 0.5 µM was less than 9.9 µL/min/mg in data set [8] and 45.8 µL/min/mg in [9]. Moreover, the concentration at 1 h in data set [10] came out at 68.9 ng/mL. Also, the concentration at 3 h in [11] amounted to 109 ng/mL. Also, the concentration at 6 h in data set [12] amounted to 110 ng/mL. In data set [13], the concentration at 24 h is 167 ng/mL. Besides, the Cmax in data set [14] was determined as 174 ng/mL. In addition, the Tmax in data set [15] was 6 h. The compound further gave a Clast in data set [16] of 167 ng/mL. This compound also gave a Tlast in data set [17] of 24 h. Also, the AUC(0-t) in data set [18] is 3070 ng·h/mL.

As to `CC(C)CC[C@H](O)[C@@H](C)[C@H]1CC[C@H]2[C@@H]3CC=C4C[C@@H](OS(=O)(=O)[O-])CC[C@]4(C)[C@H]3CC[C@]12C.[Na+]`, the result (in the data set on B16-F1; in data set [4]) was Active. Further, the Kinetic_solubility entry in data set [5] is “NotTraceable”. Also, the Fu in data set [6] and in data set [7] was less than 1% throughout. The figures for the microsomal CLint at 0.5 µM in data set [8] and in [9] were 26.4 µL/min/mg and 17.2 µL/min/mg, respectively. Moreover, in data set [10], the concentration at 1 h amounted to 3170 ng/mL. The concentration at 3 h in data set [11] was 363 ng/mL. Further, the concentration at 6 h in data set [12] was 65.2 ng/mL. This compound gave a Cmax in [14] of 3170 ng/mL. For the same compound, in data set [15], the Tmax was determined as 1 h. Besides, the Clast in data set [16] was determined as 65.2 ng/mL. Besides, the Tlast in data set [17] came to 6 h. The compound also gave an AUC(0-t) in data set [18] of 4690 ng·h/mL. In addition, the AUC(0-inf) in [23] turned out to be 4800 ng·h/mL. In addition, the “%AUCextra” value with Mus musculus is 2.5%.

Consider `CC(C)CCC[C@@H](C)[C@H]1CC[C@H]2[C@@H]3C[C@@H]4O[C@@]45C[C@@H](OS(=O)(=O)O)CC[C@]5(C)[C@H]3CC[C@]12C`, for which it took 2000 nM to reach half-maximal inhibition in data set [2] (IC50).
